From patent US20190367449A1, “PHENYLCREATINE, ITS USE AND METHOD FOR ITS PRODUCTION” (priority 2017, published 2019)

Columns and labels:
[1] = Body weight of mice on administration of creatine and phenylcreatine; format: in vivo; details: 20 days daily into the stomach, creatine 0.3 mg per gram, phenylcreatine 50 mg per kg, control 6.4%
Procedure: In order to find out whether phenylcreatine is a functional analogue of creatine, and also how much its effect is related to the strength of creatine, the functional state of the mice was assessed, namely, the body weight was measured, activity and endurance in the test on white mongrel mice were assessed—males weighing 18-22 g.
Two experimental groups of mice and one control group (10 mice in each group) were selected. Initially, the animals were of equal mass. The animals were kept in accordance with the rules adopted by the European Convention for the Protection of Vertebrates used for experimental and other purposes (European Convention for the Protection of Vertebrates used for Experiments or for Other Scientific Purposes (EST No. 123), Strasbourg, 18 March 1986, M., 1990, 12 pp.). Animals were kept in standard vivarium conditions. The animals were killed by decapitation in accordance with the “Rules for carrying out work using experimental animals”, approved by order of the Ministry of Health of the USSR No. 742 of 13 Nov. 1984 (Bolshakov O P, Neznanov N G, Babakhnyan R V Didactic and ethical aspects of research on biomodels and on laboratory animals//Qualitative clinical practice. 2002. No. 1. P.58-61).
Within 20 days, the animals received an aqueous solution of creatine in a dosage of 0.3 mg per gram of weight. […]

white mongrel mice = test: Endurance of mice in the treadmill test (running to complete exhaustion); format: in vivo; details: for Running time of mice (M ± m): treadmill 29-31 m/min, 1 hour after administration
Procedure: In order to find out whether phenylcreatine is a functional analogue of creatine, and also how much its effect is related to the strength of creatine, the functional state of the mice was assessed, namely, the body weight was measured, activity and endurance in the test on white mongrel mice were assessed-males weighing 18-22 g. Two experimental groups of mice and one control group (10 mice in each group) were selected. Initially, the animals were of equal mass. The animals were kept in accordance with the rules adopted by the European Convention for the Protection of Vertebrates used for experimental and other purposes (European Convention for the Protection of Vertebrates used for Experiments or for Other Scientific Purposes (EST No. 123), Strasbourg, 18 March 1986, M., 1990, 12 pp.). Animals were kept in standard vivarium conditions. The animals were killed by decapitation in accordance with the “Rules for carrying out work using experimental animals”, approved by order of the Ministry of Health of the USSR No. 742 of 13 Nov. 1984 (Bolshakov […] Didactic and ethical aspects of research on biomodels and on laboratory animals//Qualitative clinical practice. 2002. No. 1. P.58-61). Within 20 days, the animals received an aqueous solution of creatine in a dosage of 0.3 mg per gram of weight. […] Upon administration, the drug was dissolved in 0.3 ml of water and injected into mice through a probe into the stomach daily in the morning, on an empty stomach. The animals of the control group received a similar volume of water. Phenylcreatine was also administered for 20 days in an amount of 50 mg per kg of body weight. Endurance of mice under physical exertion was assessed according to a standard procedure (Emirova L R Potention by […] of the action of medicinal substances that increase the endurance of athletes: dis . . . medical doctor: 14.00.25. M., 2004. 125 pp.) for the duration of running in the treadmill test. The animals of each group were subjected to daily training loads in a high load power mode, which was modelled by running on a treadmill at a speed of 29-31 m/min. The duration of daily mice training was 5 minutes. Endurance of mice was tested on the 1st, 5th, 10th, 15th, 20th and 25th days of training against the background of administration of drugs (or distilled water in the control). Endurance testing was conducted under the same conditions as training. Endurance was tested 1 hour after drug administration (Petrenko E R Comparative pharmacological study of adaptogenic properties of ginseng preparations: dis . . . candidate of biological sciences: 14.00.25., St. Petersburg, 1998. 126 pp.) until fatigue, the criterion of which was the lack of reaction of mice to stimulation of the legs and tail by electric current (Stratienko E N Influence of phenylethyl substituted derivatives of 3-oxypridine on the physical working capacity of mice under conditions of hypobaric hypoxia: dis . . . . Medical Candidate of Sciences Bryansk, 1996. DSP. 201 pp.). Running time was recorded in seconds. The study was carried out at rest, an hour after the administration of creatine or phenylcreatine, and immediately after the end of the run in the treadmill. Statistical processing of data was carried out in the program Statistica, for all data groups, using the Student's criterion. The following results were obtained concerning the effect of the intake of creatine and phenylcreatine on the endurance of mice. Dosages of 10 mg of phenylcreatine per animal and 300 mg of creatine per animal were used.

[2] = 15th day of the study, control 1.1 times
[3] = 20th day of the study, control 1.4 times
[4] = 25th day of research, control 1.7 times
[5] = 1 d, 10 mg phenylcreatine or 300 mg creatine per animal

Question: With `CN(CC(=O)O)C(=N)N` [creatine, 2-(methylguanine)-ethane acid] as the compound, how does the Weight gain [1] read?
Answer: 9%

Question: And the “Increase of running time to total fatigue” value (from here on “Increase of running time”) (white mongrel mice; [2])?
Answer: 2.8 times

Question: What about the “Increase of running time” value (white mongrel mice; [3]) of the same compound?
Answer: 4.5 times

Question: What about the “Increase of running time” value (white mongrel mice; [4]) of the same compound?
Answer: 5.6 times

Question: What about the “Running time of mice (M ± m)” value (white mongrel mice; [5]) of the same compound?
Answer: 626.00 ± 32.25 s

Question: And the “Running time of mice (M ± m)” value (white mongrel mice; 5 d)?
Answer: 772.60 ± 33.07 s

Question: And the “Running time of mice (M ± m)” value (white mongrel mice; 10 d)?
Answer: 775.80 ± 37.01 s

Question: And the “Running time of mice (M ± m)” value (white mongrel mice; 15 d)?
Answer: 1811.30 ± 85.82 s

Question: And the “Running time of mice (M ± m)” value (white mongrel mice; 20 d)?
Answer: 2794.70 ± 103.22 s

Question: What about the “Running time of mice (M ± m)” value (white mongrel mice; 25 d) of the same compound?
Answer: 3697.5 ± 1373 s

Question: For `N=C(N)N(CC(=O)O)Cc1ccccc1` [phenylcreatine, N-benzyl-N-carbamimidoylglycine], which Weight gain [1] is on record?
Answer: 15.4%

Question: What about the “Increase of running time” value (white mongrel mice; [2]) of the same compound?
Answer: 6.4 times

Question: And the “Increase of running time” value (white mongrel mice; [3])?
Answer: 6.9 times

Question: And the “Increase of running time” value (white mongrel mice; [4])?
Answer: 6.7 times

Question: What about the “Running time of mice (M ± m)” value (white mongrel mice; [5]) of the same compound?
Answer: 588.23 ± 25 s

Question: And the “Running time of mice (M ± m)” value (white mongrel mice; 5 d)?
Answer: 747.23 ± 17.06 s

Question: And the “Running time of mice (M ± m)” value (white mongrel mice; 10 d)?
Answer: 1874.12 ± 114.43 s

Question: And the “Running time of mice (M ± m)” value (white mongrel mice; 15 d)?
Answer: 3756.77 ± 97.02 s

Question: What about the “Running time of mice (M ± m)” value (white mongrel mice; 20 d) of the same compound?
Answer: 4076.45 ± 276.57 s

Question: And the “Running time of mice (M ± m)” value (white mongrel mice; 25 d)?
Answer: 3981.4 ± 202.8 s

Question: And the “Speed of increase of the effect relative to the group receiving creatine” value (white mongrel mice; mice treadmill)?
Answer: 2 times
